Source: US10689425B2, “Collagen-binding synthetic peptidoglycans, preparation, and methods of use” (Purdue Research Foundation, priority 2008, dated 2020)
Groups on a side chain read outwards from the residue. *: point of attachment. PDPH = heterobifunctional sulfhydryl-reactive crosslinker; Dansyl = CN(C)c1cccc2c(S(=O)(=O)*)cccc12

Assays:
[1] = tested on: collagen; test: Microplate fluorescence binding of dansyl-labelled peptide or conjugate to immobilized collagen; conditions: collagen vs BSA and untreated wells; 100 μM to 10 nM
Procedure: Binding assays were done in a 96-well high-binding plate, black with a clear bottom (Costar). Collagen was compared to untreated wells and BSA coated wells. Collagen and BSA were immobilized at 37° C. for 1 hr by incubating 90 μL/well at concentrations of 2 mg/mL in 10 mM HCl and 1×PBS, respectively. Each well was washed 3× with 1×PBS after incubating. Z-SILY was dissolved in 1×PBS at concentrations from 100 μM to 10 nM in 10-fold dilutions. Wells were incubated for 30 min at 37° C. and rinsed 3× with PBS and then filled with 90 μL of 1×PBS. Fluorescence readings were taken on an M5 Spectramax Spectrophotometer (Molecular Devices) at excitation/emission wavelengths of 335 nm/490 nm respectively.
Binding assays were done in a 96-well high binding plate, black with a clear bottom (Costar). Collagen was compared to untreated wells and BSA coated wells. Collagen and BSA were immobilized at 37° C. for 1 hr by incubating 90 μL/well at concentrations of 2 mg/mL in 10 mM HCl and 1×PBS respectively. […]
Wells were preincubated with DS at 37° C. for 30 min to eliminate nonspecific binding of DS to collagen. […] Fluorescence readings were taken on an M5 Spectramax Spectrophotometer (Molecular Devices) at excitation/emission wavelengths of 335 nm/490 nm respectively.
The fluorescence binding assays described for DS-ZSILY was performed with peptide sequence ZSYIRIADTNITGC (ZDc13).

[2] = biological target: T1, collagen (Bos taurus, UniProt P02453+P02465); test: Collagen fibrillogenesis by turbidity (absorbance at 313 nm); format: biochemical; conditions: 1:1 collagen:additive molar ratio
T1 construct: purchased Inamed, Freemont, Calif; (Nutragen)
Procedure: (§1) Gels were made with Nutragen collagen (Inamed, Freemont, Calif.) at a final concentration of 4 mg/mL collagen. Nutragen stock is 6.4 mg/mL in 10 mM HCl. Gel preparation was performed on ice, and fresh samples were made before each test. The collagen solution was adjusted to physiologic pH and salt concentration, by adding appropriate volumes of 10×PBS (phosphate buffered saline), 1×PBS, and 1M NaOH. For most experiments, samples of DS, decorin, DS-SILY, or DS-SYIR were added at a 10:1 collagen:sample molar ratio by a final 1×PBS addition (equal volumes across treatments) in which the test samples were dissolved at appropriate concentrations. In this way, samples are constantly kept at pH 7.4 and physiologic salt concentration. Collagen-alone samples received a 1×PBS addition with no sample dissolved. Fibrillogenesis will be induced by incubating neutralized collagen solutions at 37° C. overnight in a humidified chamber to avoid dehydration. Gel solutions with collagen:sample molar ratios of other than 10:1 were prepared similarly.
Collagen fibrillogenesis was monitored by measuring turbidity related absorbance at 313 nm providing information on rate of fibrillogenesis and fibril diameter. […] A SpectraMax M5 at 37° C. was used to measure absorbance at 313 nm at 30 s intervals for 6 hours. […]

[3] = biological target: T2, Type I collagen gels (Bos taurus, UniProt P02453+P02465); test: Cryo-SEM of type I collagen gels (fibril diameter, sheet distance, fibril density); conditions: for Fibril diameter: Example 29, images at 20,000×, α=0.05
T2 construct: purchased Inamed, Freemont, Calif; (Nutragen)
Procedure: as §1
Gels for cryo-SEM were formed, as in EXAMPLE 16, directly on the SEM stage and incubated at 37° C. overnight. The stages were then secured in a cryo-holder and plunged into liquid nitrogen slush. Samples were then transferred to a Gatan Alto 2500 pre-chamber cooled to −170° C. under vacuum. A free-break surface was created with a cooled scalpel, and each sample evaporated under sublimation conditions for 20 min. The sample was coated by platinum sputter coating for 120 s. […] Fibril diameter was calculated using ImageJ software (NIH) measuring individual fibrils by hand (drawing a line across fibrils and measuring its length after properly setting the scale). There were 3 observers, 3 separate images per treatment, 10 fibrils recorded per image giving a total of 90 measurements per treatment. Sheet distance was calculated using ImageJ, again measuring by hand. […]
Using a modification of EXAMPLE 21 fibril diameters were measured by cryo-SEM. Fibril diameters from cryo-SEM images taken at 20,000× were measured using ImageJ software (NIH). At least 45 fibrils were measured for each treatment. […]
Collagen gels were formed in the presence of each additive at a 10:1 molar ratio, as described in EXAMPLE 16, directly on the SEM stage, processed, and imaged as described. Images at 10,000× were analyzed for fibril density calculations. Images were converted to 8-bit black and white, and threshold values for each image were determined using ImageJ software (NIH). […] The ratio of white to black area was calculated using MatLab software. All measurements were taken in triplicate and thresholds were determined by an observer blinded to the treatment.

[4] = tested on: Human aortic smooth muscle cells; test: Collagen remodeling: hydroxyproline content in cell medium; format: cell-based; conditions: cultures up to 30 days
Procedure: Following a method by Grassl, et al. (Grassl, et al., Journal of Biomedical Materials Research 2002, 60, (4), 607-612), which is herein incorporated in its entirety, collagen gels with or without synthetic PG mimics were formed as described in EXAMPLE 16. Human aortic smooth muscle cells (Cascade Biologics, Portland, Oreg.) were seeded within collagen gels by adding 4×10^6 cells/mL to the neutralized collagen solution prior to incubation. The cell-collagen solutions were pipetted into an 8-well Lab-Tek chamber slide and incubated in a humidified 37° C. and 5% CO2 incubator. After gelation, the cell-collagen gels will be covered with 1 mL Medium 231 as prescribed by Cascade. Every 3-4 days, the medium was removed from the samples and the hydroxyproline content measured by a standard hydroxyproline assay (Reddy, 1996).
To measure degraded collagen in the supernatant medium, the sample was lyophilized, the sample hydrolyzed in 2M NaOH at 120° C. for 20 min. After cooling, free hydroxyproline was oxidized by adding chloramine-T (Sigma) and reacting for 25 min at room temperature. Ehrlich's aldehyde reagent (Sigma) was added and allowed to react for 20 min at 65° C. and followed by reading the absorbance at 550 nm on an M-5 spectrophotometer (Molecular Devices). […] Cultures were incubated for up to 30 days and three samples of each treatment measured. […]

[5] = tested on: collagen; test: SILY binding to collagen (Biacore surface plasmon resonance)
Procedure: Biacore studies were performed on a Biacore 2000 using a CM-3 chip (Biacore, Inc., Piscataway, N.J.). The CM-3 chip is coated with covalently attached carboxymethylated dextran, which allows for attachment of the substrate collagen via free amine groups. Flow cells (FCs) 1 and 2 were used, with FC-1 as the reference cell and FC-2 as the collagen immobilized cell. Each FC was activated with EDC-NHS, and 1500RU of collagen was immobilized on FC-2 by flowing 1 mg/mL collagen in sodium acetate, pH 4, buffer at 5 μL/min for 10 min. Unreacted NHS-ester sites were capped with ethanolamine; the control FC-1 was activated and capped with ethanolamin.
To determine peptide binding affinity, SILY was dissolved in 1×HBS-EP buffer (Biacore) at varying concentrations from 100 uM to 1.5 μm in 2-fold dilutions. […] The first 10 injections were buffer injections, which help to prime the system, followed by randomized sample injections, run in triplicate. Analysis was performed using BIAevaluation software (Biacore).

[6] = tested on: Human coronary artery smooth muscle cells (HCA SMC); test: Gel compaction by cells seeded in collagen gels; format: cell-based
Procedure: Human coronary artery smooth muscle cells (HCA SMC) (Cascade Biologics) were cultured in growth medium (Medium 231 supplemented with smooth muscle growth factor). Cells from passage 3 were used for all experiments. Differentiation medium (Medium 231 supplemented with 1% FBS and 1× pen/strep) was used for all experiments unless otherwise noted.
Collagen gels were prepared with each additive as described with the exception that the 1×PBS example addition was omitted to accommodate the addition of cells in media. After incubating on ice for 30 min, HCA SMCs in differentiation medium were added to the gel solutions to a final concentration of 1×10^6 cells/mL. Gels were formed in quadruplicate in 48-well non-tissue culture treated plates (Costar) for 6 hrs before adding 500 μL/well differentiation medium. Gels were freed from the well edges after 24 hrs. Medium was changed every 2-3 days and images for compaction were taken at the same time points using a Gel Doc System (Bio-Rad). The cross-sectional area of circular gels correlating to degree of compaction was determined using ImageJ software (NIH). Gels containing no cells were used as a negative control and cells in collagen gels absent additive were used as a positive control. By day 10 all gels had compacted to approximately 10% of the original gel area, and differences between additives were small.

T2 sequence (P02453 162-1217 limits assumed): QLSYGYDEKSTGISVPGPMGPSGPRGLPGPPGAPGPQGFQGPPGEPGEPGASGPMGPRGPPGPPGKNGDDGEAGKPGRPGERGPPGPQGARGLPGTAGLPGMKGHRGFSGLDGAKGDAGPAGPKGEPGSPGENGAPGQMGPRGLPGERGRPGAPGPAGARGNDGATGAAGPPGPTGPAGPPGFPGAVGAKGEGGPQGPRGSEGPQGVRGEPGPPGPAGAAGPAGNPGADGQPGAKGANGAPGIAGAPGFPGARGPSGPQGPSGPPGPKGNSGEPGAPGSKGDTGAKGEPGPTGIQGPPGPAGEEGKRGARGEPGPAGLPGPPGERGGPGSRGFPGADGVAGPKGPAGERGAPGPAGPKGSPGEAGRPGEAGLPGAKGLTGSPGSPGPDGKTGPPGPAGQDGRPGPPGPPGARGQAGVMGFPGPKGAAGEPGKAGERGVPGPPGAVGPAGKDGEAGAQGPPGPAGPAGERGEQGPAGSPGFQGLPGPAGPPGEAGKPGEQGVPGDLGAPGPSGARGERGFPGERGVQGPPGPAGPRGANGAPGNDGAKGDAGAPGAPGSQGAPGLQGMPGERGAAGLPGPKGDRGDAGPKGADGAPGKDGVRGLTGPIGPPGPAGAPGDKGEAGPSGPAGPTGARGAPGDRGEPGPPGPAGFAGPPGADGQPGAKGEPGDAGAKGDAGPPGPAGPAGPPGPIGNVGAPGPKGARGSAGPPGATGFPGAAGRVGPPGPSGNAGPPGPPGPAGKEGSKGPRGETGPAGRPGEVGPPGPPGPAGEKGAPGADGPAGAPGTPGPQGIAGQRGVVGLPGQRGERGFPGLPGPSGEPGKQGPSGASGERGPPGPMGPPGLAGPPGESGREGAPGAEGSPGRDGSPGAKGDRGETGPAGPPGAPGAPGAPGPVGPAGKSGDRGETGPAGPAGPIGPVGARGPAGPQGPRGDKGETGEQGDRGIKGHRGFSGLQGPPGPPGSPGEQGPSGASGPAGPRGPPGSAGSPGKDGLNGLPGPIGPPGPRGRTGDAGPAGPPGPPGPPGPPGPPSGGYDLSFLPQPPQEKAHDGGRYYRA
T2 sequence (P02465 80-1117 limits assumed): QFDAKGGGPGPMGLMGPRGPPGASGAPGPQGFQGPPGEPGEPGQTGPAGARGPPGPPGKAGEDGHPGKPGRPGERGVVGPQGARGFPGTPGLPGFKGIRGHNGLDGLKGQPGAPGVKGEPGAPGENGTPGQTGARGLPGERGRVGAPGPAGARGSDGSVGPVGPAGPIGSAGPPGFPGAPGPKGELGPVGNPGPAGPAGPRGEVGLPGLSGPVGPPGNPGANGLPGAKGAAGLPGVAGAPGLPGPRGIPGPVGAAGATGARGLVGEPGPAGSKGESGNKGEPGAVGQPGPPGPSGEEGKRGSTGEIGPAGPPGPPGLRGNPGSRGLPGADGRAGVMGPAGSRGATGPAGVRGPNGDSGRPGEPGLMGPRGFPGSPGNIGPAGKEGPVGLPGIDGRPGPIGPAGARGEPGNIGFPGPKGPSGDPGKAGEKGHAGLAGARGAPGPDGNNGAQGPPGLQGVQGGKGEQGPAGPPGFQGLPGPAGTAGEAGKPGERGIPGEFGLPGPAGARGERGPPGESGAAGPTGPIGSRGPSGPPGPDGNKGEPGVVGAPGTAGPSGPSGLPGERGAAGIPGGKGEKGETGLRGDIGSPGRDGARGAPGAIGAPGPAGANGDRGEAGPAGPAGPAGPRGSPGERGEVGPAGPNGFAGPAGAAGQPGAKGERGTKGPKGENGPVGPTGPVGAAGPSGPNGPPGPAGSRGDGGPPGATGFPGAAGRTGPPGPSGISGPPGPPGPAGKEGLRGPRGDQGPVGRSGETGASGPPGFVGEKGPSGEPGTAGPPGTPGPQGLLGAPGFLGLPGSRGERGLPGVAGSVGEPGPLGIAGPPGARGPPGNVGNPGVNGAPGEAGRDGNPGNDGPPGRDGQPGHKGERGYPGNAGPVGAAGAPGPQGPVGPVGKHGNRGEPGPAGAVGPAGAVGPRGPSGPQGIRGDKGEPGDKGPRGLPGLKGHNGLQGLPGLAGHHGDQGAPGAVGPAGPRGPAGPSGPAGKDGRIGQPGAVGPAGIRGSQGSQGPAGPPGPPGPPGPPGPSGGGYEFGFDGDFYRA
T1 sequence (P02453 162-1217 limits assumed): as the sequence (P02453 162-1217 limits assumed) above
T1 sequence (P02465 80-1117 limits assumed): as the sequence (P02465 80-1117 limits assumed) above

DS-ZDc13: dermatan sulfate conjugate of ZSYIRIADTNITGC (ZDc13)
Specific binding to collagen-treated wells [1]: binds specifically to the collagen surface in a dose-dependent manner

SYIRIADTNITGC [Dc13, Dc13 peptide]
Effect on fibrillogenesis [2]: little effect on fibrillogenesis compared to collagen alone | Fibril diameter [3]: does not affect fibril diameter | Collagen degradation by hydroxyproline content in cell medium [4]: greater collagen degradation compared to collagen alone

RRANAALKAGELYKSILYGC
Reversibility of binding to collagen ([5]; association/disassociation curves, FIG. 3): binds reversibly with collagen | Kd ([5]; calculated from the on-off binding kinetics, collagen immobilized on CM-3 chip): 1200 nM | Fibril density (ratio of fibril containing area to void space) ([3]; 10:1 collagen:additive, images at 10,000×): significantly greater fibril density | Fibril diameter [3]: decrease in fibril diameter | Collagen degradation by hydroxyproline content in cell medium [4]: greater collagen degradation compared to collagen alone

DS-Z-SILY: dermatan sulfate conjugated to dansyl-modified peptide Z-SILY (Dansyl-GRRANAALKAGELYKSILYGC([PDPH-oxidized dermatan sulfate])-NH2)
Specific binding to collagen-treated wells [1]: binds specifically to the collagen-treated wells over BSA and untreated wells

B1: Decorin: proteoglycan known to influence collagen fibrillogenesis (protein, UniProt P07585 31-359, looked up)
Decorin: DEASGIGPEVPDDRDFEPSLGPVCPFRCQCHLRVVQCSDLGLDKVPKDLPPDTTLLDLQNNKITEIKDGDFKNLKNLHALILVNNKISKVSPGAFTPLVKLERLYLSKNQLKELPEKMPKTLQELRAHENEITKVRKVTFNGLNQMIVIELGTNPLKSSGIENGAFQGMKKLSYIRIADTNITSIPQGLPPSLTELHLDGNKISRVDAASLKGLNNLAKLGLSFNSISAVDNGSLANTPHLRELHLDNNKLTRVPGGLAEHKYIQVVYLHNNNISVVGSSDFCPPGHNTKKASYSGVSLFSNPVQYWEIQPSTFRCVYVRSAIQLGNYK
Fibril diameter [3]: significantly decrease fibril diameter over collagen or collagen+dermatan sulfate | Gel compaction, statistical significance ([6]; Day 7): significant against all samples | Gel compaction, statistical significance ([6]; Days 3 and 5): significant relative to collagen and DS
